PMC8233136, “Monomeric bile acids modulate the ATPase activity of detergent-solubilized ABCB4/MDR3” (Journal of Lipid Research, 2021)
Where “and” joins values, the source holds several entries; their conditions need not be identical. Identical values can stand only once.

Columns and labels:
[1] = Critical micelle concentration by Hoechst 33342 fluorescence in ATPase reaction buffer; format: physicochemical; details: 50 mM Tris-HCl pH 7.5, 100 mM NaCl, 37°C; no FC-16, MgCl2 or ATP
Protocol: CMC values were determined as described ([61]). […] 96-well plates suitable for fluorescence spectroscopy (Greiner Bio-One, FIA plate, black, flat bottom, medium binding) were used. […] CMCs of the bile acids were determined in ATPase reaction buffer (50 mM Tris-HCl, pH 7.5 (at 37°C), 100 mM NaCl) containing no FC-16, MgCl2, or ATP at 37°C using a Tecan M200 plate reader (Atlantic lab equipment). Bile acids were dissolved either in ddH2O or in 100% DMSO (as stated in “Lipid, cholesterol and bile acid preparation”) at a concentration of 100 mM. […] In case of hydrophobic bile acids, which were dissolved in DMSO, DMSO concentration was adapted to 1% in all wells. […] After background correction, fluorescence data were analyzed using Prism (version 8, GraphPad) with Equation 4:(4) F=Fmax∗(c[BA]−cmc)/(K0.5−cmc)+(c[BA]−cmc)
The measured fluorescence at each bile acid concentration (c[BA]) is represented by F, while Fmax is the maximal fluorescence, K0.5 is the midpoint of the function, and cmc is the critical micelle concentration of the bile acid.

human ABCB4 [2] = target: T1, human ABCB4 (Homo sapiens, UniProt P21439); assay: ATP hydrolysis (malachite green) of purified ABCB4 in the presence of 300 μM DOPC (with or without cholesterol); format: biochemical; details: for activity at 1000 µM / Relative ATPase activity in the presence of 300 μM DOPC: 1,000 μM bile acid/detergent/BAM + 300 μM DOPC; for activity at 1000 µM: read-out: Relative ATPase activity in the presence of 300 μM DOPC; for Decrease of DOPC-stimulated ATPase activity: 1,000 μM + 300 μM DOPC, relative to DOPC alone
T1 construct: made in house; host or cells: Pichia pastoris (chromosomally integrated)
Protocol: A sample of purified ABCB4 was incubated with 10-fold molar excess of BODIPY® FL maleimide (BODIPY® FL N-(2-aminoethyl)maleimide, Molecular Probes) at 22°C for 20 min. The reaction was quenched after 20 min by addition of a 20-fold molar excess of dithiothreitol (DTT) at 22°C for 10 min. Qualitative labeling efficiency was analyzed by visualizing a sample after SDS-PAGE by UV excitation.
DOPC was dissolved in chloroform, the solvent was evaporated, and the dried lipid sample was redissolved in ATP hydrolysis reaction buffer (50 mM Tris HCl, pH 7.4 at 37°C, 100 mM NaCl) at a concentration of 25.4 mM following the protocol of Geertsma et al. ([59]). Prior to the addition of the DOPC sample to the ATP hydrolysis assay, it was diluted to 5 mM, sonicated until a clear solution was obtained, and subsequently used at a final concentration of 300 μM. Since chloroform is not suitable for the later ATPase assay and cholesterol at higher concentration is insoluble in water and nearly all solvents, a molar mixture of cholesterol and DOPC was used. This mixture was obtained by adding the required molar ratio of cholesterol to always the same amount of dried DOPC. Afterward, the mixture was treated identical to DOPC only as described above resulting in a final concentration (f.c.) of 300 μM DOPC with 0–1,000 μM cholesterol in the ATPase assay.
(§1) The sodium salts of conjugated and unconjugated bile acids were dissolved in double-distilled water (ddH2O) or 100% DMSO at a concentration of 100 mM. While glyco-/tauro-/cholic acid (G/T/CA), glyco-/tauro-/chenodeoxycholic acid (G/T/CDCA) were dissolved in ddH2O water, glyco-/tauro-/deoxycholic acid (G/T/DCA), glyco/-tauro-/ursodeoxycholic acid (G/T/UDCA) as wells as Nor-UDCA and taurolithocholic acid (TLCA) were dissolved in DMSO. […] Modulation of the ATP hydrolysis by bile acid was determined in a concentration-dependent manner from 0 to 1,000 μM bile acids.
(§2) Analysis of the ATP activity of ABCB4 was performed by determining the amount of released, free inorganic orthophosphate by the malachite green assay ([53], [54], [60]) with minor modifications. The assay was performed in a total volume of 100 μl consisting of reaction buffer (50 mM Tris HCl, pH 7.4 at 37°C, 100 mM NaCl) supplemented with the 2.5 × cmc of FC-16 and 10 mM MgCl2. For determining the effect of DOPC, different bile acids or combinations thereof, 1–5 μL of the corresponding stock solutions (see lipid and bile acid preparation) were added. Five micrograms of ABCB4 or the BODIPY®-labeled sample was used in every reaction sample. Reaction was started by addition of ATP (5 mM f.c.) and performed for 40 min at 37°C. After 0 and 40 min, the reaction was stopped by transferring 25 μl of the reaction mixture into a 96-well plate containing 175 μl of 20 mM ice-cold sulfuric acid. Additionally, a phosphate standard with concentrations raging from 0 to 500 μM was used. Subsequently, inorganic phosphate was stained by adding 50 μl of dye (0.096% (w/v) malachite green, 1.48% (w/v) ammonium molybdate, 0.173% (w/v) Tween-20, and […] sulfuric acid). After incubation for 15 min, the absorption at 595 nm was measured (iMark™ Microplate Reader, BioRad), and the concentrations of phosphate release were calculated based on the slope of the line calculated based on the phosphate standards.
(§3) Basal ATPase activity of ABCB4 was set to 0% and the effect of supplements was calculated as % stimulation or % inhibition of the basal activity, respectively. For determination of kinetic parameters, bile acid concentration was varied and analyzed according to an allosteric sigmoidal fit (Equation 1):(1) v=vmax∗[S]^h/EC50h+[S]^h

human ABCB4 [3] = target: T1, human ABCB4; assay: ATP hydrolysis (malachite green) of detergent-solubilized, purified ABCB4: modulation of basal ATPase activity; format: biochemical; details: for Slope: Hill coefficient of allosteric sigmoidal fit of ATPase stimulation; for Concentration at which maximal stimulation (plateau) of ATPase activity is reached: basal ATPase activity; for Concentration at which maximal stimulation (plateau) of ATPase activity is reached / EC50 / Emax / Max. Stimulation (%): 0-1,000 μM; for EC50: stimulation of basal ATPase activity, allosteric sigmoidal fit; for Emax / Max. Stimulation (%): basal ABCB4 ATPase activity set to 0%
Protocol: as §1, §2, §3
Here, v describes the stimulation (%), vmax is the maximal stimulation (%), EC50 represents the half maximal effective concentration, S is the substrate concentration, and h is the Hill coefficient
In case of inhibition, the reduction (%) was plotted against the bile acid concentration and data were analyzed using Equation 2:(2) y=ymin+(ymax−ymin)/1+10^((logIC50−x)∗slope)
Here, ymax is the smallest, and ymin is the highest amount of inhibition, respectively, and x represents the concentration of the inhibitor. The IC50 value is defined as the concentration necessary to obtain 50% inhibition.
In case of both substrate stimulations, followed by substrate inhibition after maximal stimulation was reached, the modulation (%) was plotted against the substrate concertation and data was analyzed using by two fits: First part (stimulation) was as usually fitted using Equation 1. The second part (substrate inhibition) was analyzed by Equation 3 starting at the last point of the plateau:(3) y=ymin+[…]/(1+x/IC50)
Here, ymax is the highest value of the plateau after stimulation is reached, while ymin is the smallest value of y after maximal stimulation was reached.

[4] = vmax of allosteric sigmoidal fit (Equation 1), read-out: Max. Stimulation (%)
[5] = basal = 0%, negative = inhibition, duplicates
[6] = vmax of allosteric sigmoidal fit (Equation 1)

T1 sequence (P21439 1-1279 isoform P21439-2): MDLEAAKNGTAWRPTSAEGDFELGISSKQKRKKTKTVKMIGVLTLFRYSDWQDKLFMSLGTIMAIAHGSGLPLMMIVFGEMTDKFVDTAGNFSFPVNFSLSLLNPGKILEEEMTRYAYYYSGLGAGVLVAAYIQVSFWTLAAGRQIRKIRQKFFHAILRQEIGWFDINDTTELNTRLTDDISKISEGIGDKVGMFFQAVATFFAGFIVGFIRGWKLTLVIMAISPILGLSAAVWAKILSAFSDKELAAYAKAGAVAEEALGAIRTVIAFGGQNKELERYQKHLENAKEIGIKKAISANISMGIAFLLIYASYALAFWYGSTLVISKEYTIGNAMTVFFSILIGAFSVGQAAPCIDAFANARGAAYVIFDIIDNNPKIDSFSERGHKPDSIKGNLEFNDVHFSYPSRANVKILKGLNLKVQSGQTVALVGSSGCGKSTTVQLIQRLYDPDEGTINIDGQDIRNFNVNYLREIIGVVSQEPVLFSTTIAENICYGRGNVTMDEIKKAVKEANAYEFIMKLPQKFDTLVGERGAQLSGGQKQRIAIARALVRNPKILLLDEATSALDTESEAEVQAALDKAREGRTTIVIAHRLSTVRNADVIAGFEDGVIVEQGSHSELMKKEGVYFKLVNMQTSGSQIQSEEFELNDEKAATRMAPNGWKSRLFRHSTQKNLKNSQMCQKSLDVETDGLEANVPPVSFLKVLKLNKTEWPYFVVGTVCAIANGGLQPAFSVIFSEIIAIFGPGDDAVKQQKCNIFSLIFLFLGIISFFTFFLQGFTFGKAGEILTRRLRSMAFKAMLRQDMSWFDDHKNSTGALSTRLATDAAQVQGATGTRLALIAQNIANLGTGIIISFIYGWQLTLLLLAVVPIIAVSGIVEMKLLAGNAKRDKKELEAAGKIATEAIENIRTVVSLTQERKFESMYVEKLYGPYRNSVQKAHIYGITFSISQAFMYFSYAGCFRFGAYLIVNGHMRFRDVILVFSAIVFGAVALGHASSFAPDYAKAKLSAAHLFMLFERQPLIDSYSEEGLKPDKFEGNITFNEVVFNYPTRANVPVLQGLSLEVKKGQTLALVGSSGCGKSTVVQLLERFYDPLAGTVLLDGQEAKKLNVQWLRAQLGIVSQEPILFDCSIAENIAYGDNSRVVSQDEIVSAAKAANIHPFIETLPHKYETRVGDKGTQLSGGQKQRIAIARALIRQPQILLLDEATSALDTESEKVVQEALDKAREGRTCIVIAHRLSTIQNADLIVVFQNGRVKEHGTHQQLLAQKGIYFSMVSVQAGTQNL

Row | Compound | Critical micelle concentration (cmc) [1] | activity at 1000 µM (human ABCB4 [2]; DOPC alone set to 100%) [%] | Slope (human ABCB4 [3]) | Concentration at which maximal stimulation (plateau) of ATPase activity is reached (human ABCB4 [3]) | EC50 (human ABCB4 [3]; read-out: EC50) [µM] | Emax (human ABCB4 [3]; [4]) [%] | further results
1 | C[C@H](CCC(=O)O)[C@H]1CC[C@H]2[C@@H]3CC[C@@H]4C[C@H](O)CC[C@]4(C)[C@H]3C[C@H](O)[C@]12C [DCA, deoxycholic acid] | 1.4 mM and 1.4 ± 0.1 mM | 100 ± 7.5 | 2.6 ± 0.6 | 300 µM | 75 ± 7.3 | 214 ± 13.3 | 
2 | CCCCCCCC/C=C\CCCCCCCC(=O)OC[C@H](COP(=O)([O-])OCC[N+](C)(C)C)OC(=O)CCCCCCC/C=C\CCCCCCCC [DOPC, 1,2-dioleoyl-sn-glycero-3-phosphocholine] |  |  |  |  |  |  | ATPase activity of nonlabeled protein (human ABCB4 [2]; presence of 300 μM DOPC, 5 μg protein): 488.6 ± 44.5 nmol/min/mg; Specific ATPase activity of ABCB4 (Bodipy-labeled activity subtracted) (human ABCB4 [2]; presence of 300 μM DOPC, basal 132.1 ± 13.0): 275.8 ± 24.8 nmol/min/mg; ATPase activity of ABCB4-Bodipy (Bodipy-labeled protein) (human ABCB4 [2]; with 300 μM DOPC, non-ABCB4-mediated background): 212.8 ± 19.7 nmol/min/mg
3 | C[C@H](CCC(=O)NCC(=O)O)[C@H]1CC[C@H]2[C@@H]3CC[C@@H]4C[C@H](O)CC[C@]4(C)[C@H]3C[C@H](O)[C@]12C [GDCA] | 2.0 mM and 2.0 ± 0.1 mM | 156 ± 8.9 | 5.9 ± 1.2 |  | 47.9 ± 1.5 | 259 ± 5 | 
4 | C[C@H](CCC(=O)NCCS(=O)(=O)O)[C@H]1CC[C@H]2[C@@H]3CC[C@@H]4C[C@H](O)CC[C@]4(C)[C@H]3C[C@H](O)[C@]12C [TDCA] | 1.7 mM and 1.7 ± 0.1 mM | 84.8 ± 9.3 | 2.7 ± 0.3 |  | 102 ± 4.2 | 217 ± 4 | 
5 | C[C@H](CCC(=O)NCCC[N+](C)(C)CC(O)CS(=O)(=O)[O-])[C@H]1CC[C@H]2[C@@H]3[C@H](O)C[C@@H]4C[C@H](O)CC[C@]4(C)[C@H]3C[C@H](O)[C@]12C (stereo partly shown) [CHAPSO, 3-[(3-cholamidopropyl)dimethylammonio]-2-hydroxy-1-propanesulfonate] |  |  | 4.3 ± 2.5 | 300 µM | 125 ± 23.3 |  | Decrease of DOPC-stimulated ATPase activity (human ABCB4 [2]): approximately 50%; Relative ATPase activity in the presence of 300 μM DOPC (human ABCB4 [2]; DOPC alone set to 100%): 48.7 ± 3.0%; Modulation of basal ATPase activity at 10 μM (human ABCB4 [3]; [5]): –7.5 ± 8.6%; Max. Stimulation (%) (human ABCB4 [3]; [6]): 145.4 ± 15.3%
6 | C[C@H](CCC(=O)NCCS(=O)(=O)O)[C@H]1CC[C@H]2[C@@H]3[C@H](O)C[C@@H]4C[C@H](O)CC[C@]4(C)[C@H]3C[C@H](O)[C@]12C [TCA, taurocholic acid] | 3.5 mM and 3.5 ± 0.1 mM |  | 2.6 ± 0.5 | approximately 400 μM |  |  | EC50 (human ABCB4 [3]; EC50 (μM)): 114 µM; Emax (human ABCB4 [3]; read-out: Max. Stimulation (%), vmax of allosteric sigmoidal fit (Equation 1)): 539 ± 24%
7 | C[C@H](CCC(=O)O)[C@H]1CC[C@H]2[C@@H]3CC[C@@H]4C[C@H](O)CC[C@]4(C)[C@H]3CC[C@]12C [LCA, lithocholic acid] | Precipitate ^a |  |  |  |  |  | 
8 | C[C@H](CCC(=O)NCCC[N+](C)(C)CCCS(=O)(=O)[O-])[C@H]1CC[C@H]2[C@@H]3[C@H](O)C[C@@H]4C[C@H](O)CC[C@]4(C)[C@H]3C[C@H](O)[C@]12C [CHAPS, 3-[(3-cholamidopropyl)dimethylammonio]-1-propanesulfonate] |  |  | 3.7 ± 2.1 | 300 µM | 151 ± 20.8 |  | Decrease of DOPC-stimulated ATPase activity (human ABCB4 [2]): approximately 50%; Relative ATPase activity in the presence of 300 μM DOPC (human ABCB4 [2]; DOPC alone set to 100%): 52.6 ± 6.5%; Modulation of basal ATPase activity at 10 μM (human ABCB4 [3]; [5]): –7.1 ± 3.6%; Modulation of basal ATPase activity at 50 μM (human ABCB4 [3]; 50 μM, basal = 0%, negative = inhibition, duplicates): –9.9 ± 5.0%; Max. Stimulation (%) (human ABCB4 [3]; [6]): 142.6 ± 11.5%
9 | CC(C)CCC[C@@H](C)[C@H]1CC[C@H]2[C@@H]3CC=C4C[C@@H](O)CC[C@]4(C)[C@H]3CC[C@]12C [Cholesterol] |  |  |  |  |  |  | ATPase activity at cholesterol:DOPC ratio 1.5:1 (human ABCB4 [2]; 300 μM DOPC, DOPC alone set to 100%): 190.4 ± 9.4%; Emax (human ABCB4 [2]; 300 μM DOPC, DOPC alone set to 100%, cholesterol:DOPC ratios 1-2, read-out: Maximal stimulation of ATPase activity by cholesterol (vmax)): 204 ± 5.9%; ATPase activity at cholesterol:DOPC molar ratio 0.04 (human ABCB4 [2]; 300 μM DOPC, DOPC alone set to 100%, considered no stimulation): 119%; EC50 (human ABCB4 [2]; cholesterol mixed with 300 μM DOPC, molar ratios 0-3.3 (cholesterol to DOPC)): 210 µM; Slope (human ABCB4 [2]; cholesterol mixed with 300 μM DOPC, allosteric sigmoidal fit): 7.8 ± 2.2; Max. Stimulation (%) (human ABCB4 [2]; cholesterol mixed with 300 μM DOPC, stimulation in addition to DOPC stimulation): 103.5 ± 5.9%
